This note sets out measurements from ChEMBL document CHEMBL3045813, “Study of the inactivation of copper, zinc superoxide dismutase by tetracycline analogues” (Med Chem Res, 2008).

The source made the active and inactive calls. The rule behind the calls is not given here.

Assay [1] deals with Superoxide dismutase [Cu-Zn] (Homo sapiens) (UniProt P00441). As to the kind of experiment: Binding affinity to Superoxide dismutase [Cu-Zn] (unknown origin) at 3.86 10^-5 mol/l after 10 min by UV-Vis spectrophotometric analysis.
Chain of Superoxide dismutase [Cu-Zn] (Homo sapiens) (P00441 whole entry): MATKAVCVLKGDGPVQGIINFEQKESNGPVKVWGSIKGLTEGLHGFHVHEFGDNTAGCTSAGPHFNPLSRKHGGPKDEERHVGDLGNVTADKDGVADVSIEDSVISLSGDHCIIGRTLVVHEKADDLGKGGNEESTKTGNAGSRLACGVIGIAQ
Assay [2] has the same target. Nature of the assay: Binding affinity to Superoxide dismutase [Cu-Zn] (unknown origin) after 10 min at 20 degC by Stern-Volmer plot analysis.
For assay [3] the target is unchanged. As to the kind of experiment: Binding affinity to Superoxide dismutase [Cu-Zn] (unknown origin) after 10 min at 30 degC by Stern-Volmer plot analysis.
Assay [4] shares this target. Nature of the assay: Binding affinity to Superoxide dismutase [Cu-Zn] (unknown origin) after 10 min at 37 degC by Stern-Volmer plot analysis.
The target is the same in assay [5]. Nature of the assay: Binding affinity to Superoxide dismutase [Cu-Zn] (unknown origin) at 3.86 10^-5 mol/l after 10 min by fluorometric analysis.
Assay [6] is filed under the species Oryctolagus cuniculus. Nature of the assay: Inactivation of New Zealand white Oryctolagus cuniculus (rabbit) Superoxide dismutase [Cu-Zn] at 28.8 mg QD for 7 days measured after 7 days by pyrogallol-oxidation method. The format is functional, organism-based.
Assay [7] is filed under the species Oryctolagus cuniculus. Nature of the assay: Inactivation of New Zealand white Oryctolagus cuniculus (rabbit) Superoxide dismutase [Cu-Zn] at 28.8 mg QD for 7 days measured up to 7 days by pyrogallol-oxidation method. The format is functional, organism-based.

In the case of `CN(C)[C@@H]1C(O)=C(C(N)=O)C(=O)[C@@]2(O)C(O)=C3C(=O)c4c(O)cccc4[C@@](C)(O)[C@H]3[C@H](O)[C@@H]12`, the outcome in assay [1] and in assay [5] was Active. Besides, the K in assay [2] worked out at 1.44 ×10⁵ L/mol; in assay [3], 8.93 ×10⁴ L/mol; in assay [4], 3.62 ×10⁴ L/mol. In addition, the Kq in assay [2] was determined as 4.37 ×10¹² L/mol/s; in assay [3], 4.22 ×10¹² L/mol/s; in assay [4] it was 3.96 ×10¹² L/mol/s.
For `C[C@H]1c2cccc(O)c2C(=O)C2=C(O)[C@]3(O)C(=O)C(C(N)=O)=C(O)[C@@H](N(C)C)[C@@H]3[C@@H](O)[C@@H]21`, the outcome in assay [1] and in assay [5] was Active. The K amounted to 6.73 ×10⁷ L/mol in assay [2], 7.9 ×10⁶ L/mol in assay [3] and 1.34 ×10⁶ L/mol in assay [4]. The Kq turned out to be 1.01 ×10¹³ L/mol/s in assay [2], 7.73 ×10¹² L/mol/s in assay [3] and 6.42 ×10¹² L/mol/s in assay [4].
Turning to `CN(C)[C@@H]1C(O)=C(C(N)=O)C(=O)[C@@]2(O)C(O)=C3C(=O)c4c(O)cccc4[C@@](C)(O)[C@H]3C[C@@H]12`, the result (in assay [1]; in assay [5]; in the assay listed under Oryctolagus cuniculus [7]) was Active. Besides, the figures for the Kq in assay [2], in assay [3] and in assay [4] were 5.97 ×10¹² L/mol/s, 5.3 ×10¹² L/mol/s and 5.25 ×10¹² L/mol/s, respectively. In addition, the outcome in the assay filed under Oryctolagus cuniculus [6] was inactive.
